Measured values from PMC8398255, “Synthesis of 3,5-Bis(trifluoromethyl)phenyl-Substituted Pyrazole Derivatives as Potent Growth Inhibitors of Drug-Resistant Bacteria” (Molecules, 2021).
Converted amounts (≈) assume the structure as drawn.

Assays:
[1] = system: Bacillus subtilis ATCC 6623 (Bs); assay: MIC, microdilution (CLSI); type: cell-based; settings: ATCC6623; Bs, Bacillus subtilis ATCC 6623; n = 3; read-out: MIC
Protocol: (§1) Compounds were dissolved in dimethyl sulfoxide (DMSO) to achieve a starting concentration of 32 µg/mL as described by us previously. Compounds were further diluted two-fold across the 96-well honeycomb plate columns in cation adjusted Mueller Hinton broth (CAMHB), and bacterial culture was added. Plates were incubated for 18–20 h at 35 ℃ before determining the minimum concentrations at which wells had no visible turbidity to the naked eye. The MIC values were determined from at least a duplicate result obtained from three independent experiments using fresh bacterial cultures on different days.

[2] = system: E. faecalis ATCC 29212 (Ef12); assay: MIC, microdilution (CLSI); type: cell-based; settings: Enterococcus faecalis, ATCC29212; Ef12, antibiotic susceptible E. faecalis ATCC 29212; n = 3; read-out: MIC
Protocol: as §1

[3] = system: E. faecalis ATCC 51299 (Ef99); assay: MIC, microdilution (CLSI); type: cell-based; settings: Enterococcus faecalis, ATCC 51299 / VRE; Ef99, vancomycin-resistant (VRE) E. faecalis ATCC 51299; n = 3; read-out: MIC
Protocol: as §1

[4] = system: E. faecium ATCC 700221 (Ef21); assay: MIC, microdilution (CLSI); type: cell-based; settings: Enterococcus faecium, ATCC 700221 / VRE; Ef21, vancomycin-resistant (VRE) E. faecium ATCC 700221; n = 3; read-out: MIC
Protocol: as §1

[5] = system: S. aureus ATCC 25923 (Sa23); assay: MIC, microdilution (CLSI); type: cell-based; settings: Staphylococcus aureus, ATCC25923; Sa23, antibiotic susceptible S. aureus ATCC 25923; n = 3; read-out: MIC
Protocol: as §1

[6] = system: S. aureus ATCC 33591 (Sa91); assay: MIC, microdilution (CLSI); type: cell-based; settings: Staphylococcus aureus, ATCC33591; Sa91, methicillin-resistant S. aureus ATCC 33591; n = 3; read-out: MIC
Protocol: as §1

[7] = system: S. aureus ATCC 33592 (Sa92); assay: MIC, microdilution (CLSI); type: cell-based; settings: Staphylococcus aureus, ATCC33592; Sa92, methicillin-resistant S. aureus ATCC 33592; n = 3; read-out: MIC
Protocol: as §1

[8] = system: S. aureus ATCC 700699 (Sa99); assay: MIC, microdilution (CLSI); type: cell-based; settings: Staphylococcus aureus, ATCC700699; Sa99, methicillin-resistant S. aureus ATCC 700699; n = 3; read-out: MIC
Protocol: as §1

[9] = system: S. aureus BAA-2312 (Sa12); assay: MIC, microdilution (CLSI); type: cell-based; settings: Staphylococcus aureus, BAA2312; Sa12, methicillin-resistant S. aureus BAA-2312; n = 3; read-out: MIC
Protocol: as §1

[10] = system: S. epidermidis ATCC 700296 (Se); assay: MIC, microdilution (CLSI); type: cell-based; settings: Staphylococcus epidermidis, ATCC700296; Se, S. epidermidis ATCC 700296; n = 3; read-out: MIC
Protocol: as §1

Gram-positive bacteria = assay: MIC across the tested strains; type: cell-based; settings: for antibacterial activity: tested bacteria; for MIC: across the tested strains
Protocol: as §1

S. aureus strains = assay: MIC against S. aureus strains; type: cell-based, Staphylococcus aureus; settings: for times more effective than vancomycin and daptomycin: against S. aureus strains
Protocol: as §1

SMILES: O=C(O)c1ccc(NCc2cn(-c3ccc(C(=O)O)cc3)nc2-c2cc(C(F)(F)F)cc(C(F)(F)F)c2)cc1 [Compound 13, 4-[[3-[3,5-Bis(trifluoromethyl)phenyl]-1-(4-carboxyphenyl)pyrazol-4-yl]methylamino] benzoic acid]
- MIC [1]: > 32 µg/mL
- MIC [2]: > 32 µg/mL
- MIC [3]: > 32 µg/mL
- MIC [4]: > 32 µg/mL
- MIC [5]: > 32 µg/mL
- MIC [6]: > 32 µg/mL
- MIC [7]: > 32 µg/mL
- MIC [8]: > 32 µg/mL
- MIC [9]: 32 µg/mL (≈ 58.2 µM)
- MIC [10]: > 32 µg/mL
- antibacterial activity (Gram-positive bacteria): eliminated the activity

SMILES: O=C(O)c1ccc(-n2cc(CNc3cc(Cl)cc(Cl)c3)c(-c3cc(C(F)(F)F)cc(C(F)(F)F)c3)n2)cc1 [Compound 20, 4-[3-[3,5-Bis(trifluoromethyl)phenyl]-4-[(3,5-dichloroanilino)methyl]pyrazol-1-yl] benzoic acid]
- MIC [1]: 1 µg/mL (≈ 1.74 µM)
- MIC [2]: 1 µg/mL (≈ 1.74 µM)
- MIC [3]: 1 µg/mL (≈ 1.74 µM)
- MIC [4]: 1 µg/mL (≈ 1.74 µM)
- MIC [5]: 1 µg/mL (≈ 1.74 µM)
- MIC [6]: 0.5 µg/mL (≈ 0.871 µM)
- MIC [7]: 1 µg/mL (≈ 1.74 µM)
- MIC [8]: 1 µg/mL (≈ 1.74 µM)
- MIC [9]: 1 µg/mL (≈ 1.74 µM)
- MIC [10]: 2 µg/mL (≈ 3.48 µM)
- MIC (Gram-positive bacteria): ≥ 0.5 µg/mL
- times more effective than vancomycin and daptomycin (S. aureus strains): up to 4 times

SMILES: CSc1ccc(NCc2cn(-c3ccc(C(=O)O)cc3)nc2-c2cc(C(F)(F)F)cc(C(F)(F)F)c2)cc1 [Compound 6, 4-[3-[3,5-Bis(trifluoromethyl)phenyl]-4-[(4-methylsulfanylanilino)methyl]pyrazol-1-yl] benzoic acid]
- MIC [1]: 1 µg/mL (≈ 1.81 µM)
- MIC [2]: 4 µg/mL (≈ 7.25 µM)
- MIC [3]: 2 µg/mL (≈ 3.63 µM)
- MIC [4]: 2 µg/mL (≈ 3.63 µM)
- MIC [5]: 2 µg/mL (≈ 3.63 µM)
- MIC [6]: 2 µg/mL (≈ 3.63 µM)
- MIC [7]: 2 µg/mL (≈ 3.63 µM)
- MIC [8]: 4 µg/mL (≈ 7.25 µM)
- MIC [9]: 2 µg/mL (≈ 3.63 µM)
- MIC [10]: 4 µg/mL (≈ 7.25 µM)
- MIC (Gram-positive bacteria): 1 to 4 µg/mL (≈ 1.81 to 7.25 µM)

SMILES: O=C(O)c1ccc(-n2cc(CNc3cccc(C(=O)O)c3)c(-c3cc(C(F)(F)F)cc(C(F)(F)F)c3)n2)cc1 [Compound 12, 3-[[3-[3,5-Bis(trifluoromethyl)phenyl]-1-(4-carboxyphenyl)pyrazol-4-yl]methylamino] benzoic acid]
- MIC [1]: > 32 µg/mL
- MIC [2]: > 32 µg/mL
- MIC [3]: > 32 µg/mL
- MIC [4]: > 32 µg/mL
- MIC [5]: > 32 µg/mL
- MIC [6]: > 32 µg/mL
- MIC [7]: > 32 µg/mL
- MIC [8]: > 32 µg/mL
- MIC [9]: > 32 µg/mL
- MIC [10]: > 32 µg/mL
- antibacterial activity (Gram-positive bacteria): eliminated the activity

SMILES: Cc1cc(NCc2cn(-c3ccc(C(=O)O)cc3)nc2-c2cc(C(F)(F)F)cc(C(F)(F)F)c2)ccc1F [Compound 14, 4-[3-[3,5-Bis(trifluoromethyl)phenyl]-4-[(4-fluoro-3-methyl-anilino)methyl]pyrazol-1-yl] benzoic acid]
- MIC [1]: 1 µg/mL (≈ 1.86 µM)
- MIC [2]: 2 µg/mL (≈ 3.72 µM)
- MIC [3]: 2 µg/mL (≈ 3.72 µM)
- MIC [4]: 1 µg/mL (≈ 1.86 µM)
- MIC [5]: 2 µg/mL (≈ 3.72 µM)
- MIC [6]: 2 µg/mL (≈ 3.72 µM)
- MIC [7]: 1 µg/mL (≈ 1.86 µM)
- MIC [8]: 2 µg/mL (≈ 3.72 µM)
- MIC [9]: 1 µg/mL (≈ 1.86 µM)
- MIC [10]: 4 µg/mL (≈ 7.44 µM)
- MIC (Gram-positive bacteria): ≥ 1 µg/mL

SMILES: O=C(O)c1ccc(-n2cc(CNc3ccc(F)c(C(F)(F)F)c3)c(-c3cc(C(F)(F)F)cc(C(F)(F)F)c3)n2)cc1 [Compound 22, 4-[3-[3,5-Bis(trifluoromethyl)phenyl]-4-[[4-fluoro-3-(trifluoromethyl)anilino]methyl]pyrazol-1-yl] benzoic acid]
- MIC [1]: 2 µg/mL (≈ 3.38 µM)
- MIC [2]: 2 µg/mL (≈ 3.38 µM)
- MIC [3]: 2 µg/mL (≈ 3.38 µM)
- MIC [4]: 1 µg/mL (≈ 1.69 µM)
- MIC [5]: 1 µg/mL (≈ 1.69 µM)
- MIC [6]: 1 µg/mL (≈ 1.69 µM)
- MIC [7]: 1 µg/mL (≈ 1.69 µM)
- MIC [8]: 1 µg/mL (≈ 1.69 µM)
- MIC [9]: 1 µg/mL (≈ 1.69 µM)
- MIC [10]: 2 µg/mL (≈ 3.38 µM)
- times more effective than vancomycin and daptomycin (S. aureus strains): up to 4 times

SMILES: Cc1cc(NCc2cn(-c3ccc(C(=O)O)cc3)nc2-c2cc(C(F)(F)F)cc(C(F)(F)F)c2)ccc1Br [Compound 16, 4-[3-[3,5-Bis(trifluoromethyl)phenyl]-4-[(4-bromo-3-methyl-anilino)methyl]pyrazol-1-yl] benzoic acid]
- MIC [1]: 1 µg/mL (≈ 1.67 µM)
- MIC [2]: 1 µg/mL (≈ 1.67 µM)
- MIC [3]: 2 µg/mL (≈ 3.34 µM)
- MIC [4]: 1 µg/mL (≈ 1.67 µM)
- MIC [5]: 1 µg/mL (≈ 1.67 µM)
- MIC [6]: 1 µg/mL (≈ 1.67 µM)
- MIC [7]: 1 µg/mL (≈ 1.67 µM)
- MIC [8]: 2 µg/mL (≈ 3.34 µM)
- MIC [9]: 1 µg/mL (≈ 1.67 µM)
- MIC [10]: 2 µg/mL (≈ 3.34 µM)
- MIC (Gram-positive bacteria): ≥ 1 µg/mL

SMILES: Cc1ccc(NCc2cn(-c3ccc(C(=O)O)cc3)nc2-c2cc(C(F)(F)F)cc(C(F)(F)F)c2)cc1Cl [Compound 15, 4-[3-[3,5-Bis(trifluoromethyl)phenyl]-4-[(3-chloro-4-methyl-anilino)methyl]pyrazol-1-yl] benzoic acid]
- MIC [1]: 1 µg/mL (≈ 1.81 µM)
- MIC [2]: 2 µg/mL (≈ 3.61 µM)
- MIC [3]: 2 µg/mL (≈ 3.61 µM)
- MIC [4]: 1 µg/mL (≈ 1.81 µM)
- MIC [5]: 2 µg/mL (≈ 3.61 µM)
- MIC [6]: 1 µg/mL (≈ 1.81 µM)
- MIC [7]: 2 µg/mL (≈ 3.61 µM)
- MIC [8]: 2 µg/mL (≈ 3.61 µM)
- MIC [9]: 1 µg/mL (≈ 1.81 µM)
- MIC [10]: 2 µg/mL (≈ 3.61 µM)
- MIC (Gram-positive bacteria): ≥ 1 µg/mL

SMILES: O=C(O)c1ccc(-n2cc(CNc3ccccc3)c(-c3cc(C(F)(F)F)cc(C(F)(F)F)c3)n2)cc1 [Compound 1, 4-[4-(Anilinomethyl)-3-[3,5-bis(trifluoromethyl)phenyl]pyrazol-1-yl] benzoic acid]
- MIC [1]: 2 µg/mL (≈ 3.96 µM)
- MIC [2]: 8 µg/mL (≈ 15.8 µM)
- MIC [3]: 4 µg/mL (≈ 7.91 µM)
- MIC [4]: 4 µg/mL (≈ 7.91 µM)
- MIC [5]: 4 µg/mL (≈ 7.91 µM)
- MIC [6]: 4 µg/mL (≈ 7.91 µM)
- MIC [7]: 4 µg/mL (≈ 7.91 µM)
- MIC [8]: 4 µg/mL (≈ 7.91 µM)
- MIC [9]: 2 µg/mL (≈ 3.96 µM)
- MIC [10]: 8 µg/mL (≈ 15.8 µM)
- MIC (Gram-positive bacteria): ≥ 2 µg/mL

SMILES: CC(C)c1ccc(NCc2cn(-c3ccc(C(=O)O)cc3)nc2-c2cc(C(F)(F)F)cc(C(F)(F)F)c2)cc1 [Compound 2, 4-[3-[3,5-Bis(trifluoromethyl)phenyl]-4-[(4-isopropylanilino)methyl]pyrazol-1-yl] benzoic acid]
- MIC [1]: 1 µg/mL (≈ 1.83 µM)
- MIC [2]: 2 µg/mL (≈ 3.65 µM)
- MIC [3]: 1 µg/mL (≈ 1.83 µM)
- MIC [4]: 1 µg/mL (≈ 1.83 µM)
- MIC [5]: 2 µg/mL (≈ 3.65 µM)
- MIC [6]: 1 µg/mL (≈ 1.83 µM)
- MIC [7]: 1 µg/mL (≈ 1.83 µM)
- MIC [8]: 2 µg/mL (≈ 3.65 µM)
- MIC [9]: 1 µg/mL (≈ 1.83 µM)
- MIC [10]: 2 µg/mL (≈ 3.65 µM)
- MIC (S. aureus strains; Staphylococcus aureus, S. aureus strains, including MRSA): 1 to 2 µg/mL (≈ 1.83 to 3.65 µM)

SMILES: O=C(O)c1ccc(-n2cc(CNc3ccc(F)c(F)c3)c(-c3cc(C(F)(F)F)cc(C(F)(F)F)c3)n2)cc1 [Compound 17, 4-[3-[3,5-Bis(trifluoromethyl)phenyl]-4-[(3,4-difluoroanilino)methyl]pyrazol-1-yl] benzoic acid]
- MIC [1]: 1 µg/mL (≈ 1.85 µM)
- MIC [2]: 4 µg/mL (≈ 7.39 µM)
- MIC [3]: 4 µg/mL (≈ 7.39 µM)
- MIC [4]: 2 µg/mL (≈ 3.69 µM)
- MIC [5]: 2 µg/mL (≈ 3.69 µM)
- MIC [6]: 2 µg/mL (≈ 3.69 µM)
- MIC [7]: 2 µg/mL (≈ 3.69 µM)
- MIC [8]: 2 µg/mL (≈ 3.69 µM)
- MIC [9]: 2 µg/mL (≈ 3.69 µM)
- MIC [10]: 4 µg/mL (≈ 7.39 µM)
- MIC (Gram-positive bacteria): 1 to 4 µg/mL (≈ 1.85 to 7.39 µM)
